Laboratory results reported in the NIST ThermoML archive (doi:10.1021/je060271a).

Details: 323.15 K, Liquid, Vibrating tube method

CCCCCCC(=O)OCC(COC(=O)CCCCCC)(COC(=O)CCCCCC)COC(=O)CCCCCC [pentaerythritol tetraheptanoate]
Details	mass density [kg/m3]
10134 kPa	962.4
10149 kPa	962.4
10164 kPa	962.4
10178 kPa	962.4
10196 kPa	962.4
10211 kPa	962.5
10229 kPa	962.4
10244 kPa	962.5
10259 kPa	962.5
10274 kPa	962.5
10292 kPa	962.5
10307 kPa	962.6
10322 kPa	962.6
10338 kPa	962.5
10356 kPa	962.7
10371 kPa	962.6
10386 kPa	962.7
10405 kPa	962.7
10420 kPa	962.7
10436 kPa	962.7
10468 kPa	962.6
10487 kPa	962.6
10503 kPa	962.8
10519 kPa	962.7
10538 kPa	962.7
10553 kPa	962.7
10572 kPa	962.8
10588 kPa	962.7
10604 kPa	962.8
10620 kPa	962.8
10639 kPa	962.8
10656 kPa	962.8
10672 kPa	962.7
10692 kPa	962.8
10708 kPa	962.8
10725 kPa	962.8
10741 kPa	962.8
10761 kPa	962.8
10777 kPa	962.8
10794 kPa	962.9
10814 kPa	962.9
10831 kPa	963
10851 kPa	963
10868 kPa	963
10885 kPa	962.9
10902 kPa	963
10923 kPa	963
10939 kPa	963
11105 kPa	963.1
11376 kPa	963.3
11395 kPa	963.2
11414 kPa	963.3
11433 kPa	963.2
11455 kPa	963.3
11474 kPa	963.3
11493 kPa	963.4
11516 kPa	963.3
11535 kPa	963.3
11558 kPa	963.4
11577 kPa	963.4
11597 kPa	963.4
11616 kPa	963.5
11640 kPa	963.4
11659 kPa	963.3
11979 kPa	963.7
12025 kPa	963.7
12045 kPa	963.6
12070 kPa	963.6
12091 kPa	963.7
12113 kPa	963.7
12138 kPa	963.7
12159 kPa	963.7
12181 kPa	963.8
12205 kPa	963.8
12226 kPa	963.7
12252 kPa	963.7
12274 kPa	963.9
12296 kPa	963.8
12322 kPa	963.9
12344 kPa	963.9
12367 kPa	964
12389 kPa	963.9
12416 kPa	963.9
12438 kPa	964
12488 kPa	963.9
12510 kPa	963.9
12533 kPa	964.1
12583 kPa	964.1
12606 kPa	964.1
12634 kPa	964.1
12680 kPa	964.2
12756 kPa	964.1
12832 kPa	964.3
12856 kPa	964.2
12884 kPa	964.2
12908 kPa	964.2
12937 kPa	964.3
13227 kPa	964.5
14188 kPa	965.1
14278 kPa	965.1
14314 kPa	965
14343 kPa	965.1
14609 kPa	965.3
14641 kPa	965.4
14675 kPa	965.3
14706 kPa	965.3
14744 kPa	965.4
14917 kPa	965.5
14957 kPa	965.6
14988 kPa	965.6
15013 kPa	965.6
15044 kPa	965.4
15070 kPa	965.6
15097 kPa	965.6
15124 kPa	965.6
15154 kPa	965.6
15175 kPa	965.8
15192 kPa	965.7
15213 kPa	965.7
15230 kPa	965.7
15251 kPa	965.6
15268 kPa	965.8
15287 kPa	965.7
15328 kPa	965.7
15347 kPa	965.7
15381 kPa	965.7
15629 kPa	966.1
15638 kPa	966.1
15649 kPa	966
15707 kPa	966
15727 kPa	966
15736 kPa	966
15745 kPa	966
15765 kPa	966.1
15774 kPa	966.1
15785 kPa	966.1
15794 kPa	966
15804 kPa	965.9
15814 kPa	966
15824 kPa	966.2
15833 kPa	966.2
15844 kPa	966.1
15863 kPa	966.1
15903 kPa	966.2
15953 kPa	966.3
15962 kPa	966.3
15972 kPa	966.2
15981 kPa	966.2
15992 kPa	966.3
16003 kPa	966.2
16012 kPa	966.2
16021 kPa	966.3
16033 kPa	966.3
16042 kPa	966.2
16052 kPa	966.3
16063 kPa	966.3
16072 kPa	966.3
16083 kPa	966.2
16092 kPa	966.3
16102 kPa	966.3
16112 kPa	966.2
16123 kPa	966.2
16133 kPa	966.3
16142 kPa	966.4
16154 kPa	966.3
16163 kPa	966.3
16175 kPa	966.3
16184 kPa	966.3
16194 kPa	966.4
16203 kPa	966.4
16215 kPa	966.3
16224 kPa	966.3
16234 kPa	966.5
16246 kPa	966.4
16256 kPa	966.3
16267 kPa	966.4
16277 kPa	966.3
16286 kPa	966.4
16296 kPa	966.5
16308 kPa	966.3
16317 kPa	966.4
16329 kPa	966.4
16339 kPa	966.3
16349 kPa	966.4
16360 kPa	966.4
16370 kPa	966.6
16380 kPa	966.4
16390 kPa	966.3
16402 kPa	966.4
16412 kPa	966.4
16422 kPa	966.5
16434 kPa	966.6
16443 kPa	966.5
16455 kPa	966.5
16465 kPa	966.5
16475 kPa	966.5
16487 kPa	966.6
16496 kPa	966.5
16507 kPa	966.6
16519 kPa	966.6
16529 kPa	966.6
16539 kPa	966.6
16551 kPa	966.5
16562 kPa	966.6
16572 kPa	966.5
16582 kPa	966.6
16594 kPa	966.5
16604 kPa	966.7
16614 kPa	966.6
16626 kPa	966.8
16636 kPa	966.6
16649 kPa	966.4
16657 kPa	966.6
16670 kPa	966.7
16680 kPa	966.6
16692 kPa	966.6
16702 kPa	966.7
16712 kPa	966.6
16725 kPa	966.6
16735 kPa	966.7
16823 kPa	966.7
16834 kPa	966.7
16844 kPa	966.8
16857 kPa	966.6
